One assay relates to OLE1 promoter. Briefly: OLE1 promoter-lacZ reporter induction (chemiluminescence). The format is cell-based, S. cerevisiae. The text has this:
(§1) The OLE1, YOL101c, and YGL039w promoters (along with their respective ATG translation start sites) each were, individually, flised to a lacZ reporter gene (which lacked an ATG translation start site) and introduced in the vector pRS415. The resulting reporter plasmids were then, separately, introduced into a multi-drug resistant yeast strain, thereby producing PL1, P41, and Ml, which are identical to each other except that PL1 carries the […], and M1 carries the YGL039w promoter (Millennium Pharmaceuticals, Inc., MMB#1495, 1497 and 1604, respectively). These yeast strains can be readily used to measure the level of activity of the OLE1, YOL101c, or YGL039w promoter by measuring expression of the lacZ gene. Enzymatic and colorimetric assays for measuring lacZ gene expression are well known in the art and can be used in the invention.
For example, the test compounds can be tested at concentrations of 25 μM and 100 μM. In a convenient high throughput screening method, the test compounds can be assayed in the wells of a multiple-well (e.g., 96-well) plastic plate (e.g., Packard, Inc. Cat. # 6005181), with each well containing a different test compound. Thus, one plate can contain the test compounds at a concentration of 25 μM, while another plate contains the test compounds at a concentration of 100 μM. Each well also contains up to 2.5% DMSO.
Cerulenin is used as a positive control in wells lacking a test compound. A stock solution of cerulenin (2,3-Epoxy-4-oxo-[…]) can be prepared to a concentration of 10 mg/ml in DMSO and stored at −20° C.
Induction of OLE1 Promoter Activity: The yeast glycerol stocks described above are used to prepare fresh yeast cultures that are used in the screening assays. The cell suspension, if frozen, is thawed at 37° C., and 33 μl of the stock is added to 12 ml of SC-Leu medium. The culture then is incubated in a shaking Erlemneyer flask at 30° C. overnight (approximately 14-15 hours). The OD600 of the culture then is measured, with a culture having an OD600 of 0.05-0.15 being suitable for use. […] 1; if necessary, the culture can be diluted with SC-Leu medium to obtain the desired OD600. A 100 μI aliquot of the yeast culture then is added to each well of the 96-well plate containing a test compound, and the cultures are incubated at 30° C. for approximately 6 hours.
To assay for an increase in the activity of the OLE1 promoter, an increase in the level of the lacZ reporter gene expression is measured. A 100 μl aliquot of 2 X substrate buffer is added to each well of the plate. To produce a 100 ml sample of 2 X substrate buffer, the following components are mixed within 1 hour of use, and kept at room temperature: 4.0 ml of GALACTON-STAR™ substrate ((3-chloro-5-(4-methoxyspiro { 1,2-dioxetane-3,2′-(4′chloro)-tricyclo-[3.3.1.1 ^3,7] decan} -4-yl)phenyl-B-D-galactopyranoside); Tropix, Inc., Cat. #GS100), 20.0 ml of SAPHIRE II™ luminescence signal enhancer (Tropix, Inc., Cat. #LAX250), and 76 ml of Lysis Buffer (0.026% Na Deoxycholic acid, 0.053% CTAB, 265 mM NaCl, 395 mM HEPES, pH 7.5). The plates are incubated at room temperature for 45 minutes, before vortexing them for 30 seconds at a low to moderate speed.
A chemiluminescent signal is produced by reaction of β-galactosidase with the substrate. Chemiluminescence can be measured using a TopCount-HTS, with the data mode set to measure […], and with a count time of 0.1 minute. Generally, chemiluminescence should be measured before significant signal decay occurs (i.e., within approximately 90 minutes of initiating the reaction).
Screening plates containing 80,000 individual small molecule compounds (comprising a diversity file) were prepared at concentrations of 100 μM in 96-well plastic clear-bottom plates (Packard, Inc. Cat. # 6005181).

The next assay deals with YOL101c promoter. The assay can be described thus: YOL101c promoter-lacZ reporter induction (chemiluminescence). The class given is cell-based, S. cerevisiae.
Description: as §1

The next assay deals with YGL039w promoter. Briefly: YGL039w promoter-lacZ reporter induction. The class given is cell-based, S. cerevisiae.
Description: as §1
Having determined that antiflingal agents like cerulenin increase the activity of the OLE1 and YOL101 c promoters, yeast strains containing one or both promoters each operably linked to a reporter gene (e.g., lacZ) can be used in a method for determining whether a test compound is an inhibitor of fungal fatty acid synthesis and is thus a candidate antifungal agent. Such a method can be carried out as follows. […]

The next assay relates to S. cerevisiae mdr mutant. The assay can be described thus: Fungal growth inhibition (OD600) / MIC testing. The class given is cell-based. As to conditions: for MIC: Saccharomyces cerevisiae. On the procedure:
Assay of Fungal Growth Inhibition: If desired, the ability of each candidate compound to inhibit fungal growth can readily be measured as follows. After incubating the yeast cultures and test compounds for 6 hours in the 96-well plates, as described above, the OD600 of the plates is measured (e.g., using a Wallac/Victor 2 plate reader). The OD600 can be measured before or after the above-described chemiluminescent assay. A test compound that decreases the OD600 of a yeast culture, relative to the OD600 obtained in the absence of the candidate compound, is an antifungal agent.
For the assay, the reporter strains were grown at 30° C. overnight (approximately 14-15 hours) in SC-Leu medium. Typically, the cultures were grown to an OD600 of 0.1, though cells at OD600 of 0.05-0.15 were also appropriate. Plates were then seeded with a 100 μl aliquot of the yeast culture and incubated at 30° C. for approximately 6 hours. To identify antifungal compounds (those affording growth inhibition), the OD600 was measured using a Wallac/Victor 2 plate reader.
The library of 80,000 small molecule compounds was screened for FAS inhibitors at concentration of 100 μM with the Pole1-lacZ reporter strain. Hits were defined as compounds that afforded 2-fold Pole1-lacZ induction. The primary screen yielded 850 hits (1.1% hit rate) as defined above. Among these, 182 were deemed structurally acceptable and subjected to retesting using the same Pole1-IacZ induction assay and an antifungal assay by growth inhibition in MIC testing.

The target of assay [1] is T1, Saccharomyces cerevisiae FAS complex (Saccharomyces cerevisiae, UniProt P07149+P19097).
T1 construct: A FAS assay using partially purified S. cerevisiae FAS complex was used to measure NADPH oxidation; tissue Sigma; host or cells: yeast extract (Sigma), FAS complex partially purified after Stoops et al. 1978
Briefly: FAS assay measuring NADPH oxidation. The class given is biochemical. On the procedure: In another inhibition assay, Saccharomyces cerevisiae FAS complex was obtained from a yeast extract (Sigma) and assayed as described in (Stoops et al., J.B.C., 253:4464-4475, 1978). A crude preparation of Candida albicans FAS can be prepared from a 1-21 YPD overnight culture of SC5314 following essentially the protocol used for S. cerevisiae FAS, with the exception that the last purification step by gel filtration was omitted. The assay cocktail contains: 0.14 mM NADPH, 0.36 mM acetyl-CoA, 0.18 mM malonyl-CoA, 5 mM EDTA, 8 mM DTT, 0.1 M MES pH 6, 100 μM compound in 1% DMSO, and fungal FAS extract. Changes in NADPH oxidation are followed for 1 hour using a BMG fluorimeter set at 340 nm excitation and 460 nm emission. The inhibition of fatty acid synthesis in these assays is expressed as a percent activity compared to the one obtained using 1% DMSO.
A FAS assay using partially purified S. cerevisiae FAS complex was used to measure NADPH oxidation as described herein.

Assay [2] has as its system S. cerevisiae MMB1493 or C. albicans SC5314 or Y01.06. The assay can be described thus: 14C-acetate incorporation into fatty acids. The class given is cell-based. As to conditions: 10 minutes preincubation, 10 minutes with 14C-acetate, 30° C. How it is done: Generally, ^14C-acetate incorporation is measured essentially as described in Kuhajda et al., P.N.A.S., 91:6379-6383, 1994. Logarithmically growing cells (4^8 cells of S. cerevisiae MMB1493 or C. albicans SC5314 or Y01.06) were preincubated with 100 μM compounds in DMSO for 10 minutes at 30° C. ^14C-Acetate was added to 20 μCi, mixed and further incubated for 10 minutes at 30° C. Fatty acids were recovered by alkaline ethanolysis (7.5% KOH in 90% ethanol, 1 00ul) at 50° C. for 1 hour, followed by acidification with concentrated HCl (15 μl) and petroleum ether extraction. The radioactivity in the organic layer was counted using a Beckman LS650 multipurpose scintillation counter using Betamax (ICN) scintillation fluid. Cerulenin was used as control at 100 μM; at this concentration 80-90% inhibition was routinely observed in this assay.

For assay [3], the system named is OLE1, YOL101c, and YGL039w genes. Briefly: Transcriptional profiling (TxP) of yeast treated with FAS inhibitor. Conditions: 0.1, 0.2 and 0.3 μM; 3 and 5 hour time points. The class given is cell-based.
Description: Logarithmically growing hypersensitive yeast MMB 1489 (Δpdr5 Δsnq2) cells were treated with cerulenin at 0.5 X, 1 X, and 1.5 X the MIC value (0.1, 0.2 and 0.3 μM) and cells were harvested at 1, 3 and 5 hour time points following drug treatment. Total RNA was obtained from cell pellets treated with 0.1, 0.2, and 0.3 μM cerulenin. […] Following hybridization, the data was normalized, filtered and analyzed.

pIC50: −log10 of the molar value. Values after ≈ are worked out from the molar mass of the structure shown. Like-named read-outs stand apart in the source and are kept apart here.

T1 sequence (P07149 whole entry): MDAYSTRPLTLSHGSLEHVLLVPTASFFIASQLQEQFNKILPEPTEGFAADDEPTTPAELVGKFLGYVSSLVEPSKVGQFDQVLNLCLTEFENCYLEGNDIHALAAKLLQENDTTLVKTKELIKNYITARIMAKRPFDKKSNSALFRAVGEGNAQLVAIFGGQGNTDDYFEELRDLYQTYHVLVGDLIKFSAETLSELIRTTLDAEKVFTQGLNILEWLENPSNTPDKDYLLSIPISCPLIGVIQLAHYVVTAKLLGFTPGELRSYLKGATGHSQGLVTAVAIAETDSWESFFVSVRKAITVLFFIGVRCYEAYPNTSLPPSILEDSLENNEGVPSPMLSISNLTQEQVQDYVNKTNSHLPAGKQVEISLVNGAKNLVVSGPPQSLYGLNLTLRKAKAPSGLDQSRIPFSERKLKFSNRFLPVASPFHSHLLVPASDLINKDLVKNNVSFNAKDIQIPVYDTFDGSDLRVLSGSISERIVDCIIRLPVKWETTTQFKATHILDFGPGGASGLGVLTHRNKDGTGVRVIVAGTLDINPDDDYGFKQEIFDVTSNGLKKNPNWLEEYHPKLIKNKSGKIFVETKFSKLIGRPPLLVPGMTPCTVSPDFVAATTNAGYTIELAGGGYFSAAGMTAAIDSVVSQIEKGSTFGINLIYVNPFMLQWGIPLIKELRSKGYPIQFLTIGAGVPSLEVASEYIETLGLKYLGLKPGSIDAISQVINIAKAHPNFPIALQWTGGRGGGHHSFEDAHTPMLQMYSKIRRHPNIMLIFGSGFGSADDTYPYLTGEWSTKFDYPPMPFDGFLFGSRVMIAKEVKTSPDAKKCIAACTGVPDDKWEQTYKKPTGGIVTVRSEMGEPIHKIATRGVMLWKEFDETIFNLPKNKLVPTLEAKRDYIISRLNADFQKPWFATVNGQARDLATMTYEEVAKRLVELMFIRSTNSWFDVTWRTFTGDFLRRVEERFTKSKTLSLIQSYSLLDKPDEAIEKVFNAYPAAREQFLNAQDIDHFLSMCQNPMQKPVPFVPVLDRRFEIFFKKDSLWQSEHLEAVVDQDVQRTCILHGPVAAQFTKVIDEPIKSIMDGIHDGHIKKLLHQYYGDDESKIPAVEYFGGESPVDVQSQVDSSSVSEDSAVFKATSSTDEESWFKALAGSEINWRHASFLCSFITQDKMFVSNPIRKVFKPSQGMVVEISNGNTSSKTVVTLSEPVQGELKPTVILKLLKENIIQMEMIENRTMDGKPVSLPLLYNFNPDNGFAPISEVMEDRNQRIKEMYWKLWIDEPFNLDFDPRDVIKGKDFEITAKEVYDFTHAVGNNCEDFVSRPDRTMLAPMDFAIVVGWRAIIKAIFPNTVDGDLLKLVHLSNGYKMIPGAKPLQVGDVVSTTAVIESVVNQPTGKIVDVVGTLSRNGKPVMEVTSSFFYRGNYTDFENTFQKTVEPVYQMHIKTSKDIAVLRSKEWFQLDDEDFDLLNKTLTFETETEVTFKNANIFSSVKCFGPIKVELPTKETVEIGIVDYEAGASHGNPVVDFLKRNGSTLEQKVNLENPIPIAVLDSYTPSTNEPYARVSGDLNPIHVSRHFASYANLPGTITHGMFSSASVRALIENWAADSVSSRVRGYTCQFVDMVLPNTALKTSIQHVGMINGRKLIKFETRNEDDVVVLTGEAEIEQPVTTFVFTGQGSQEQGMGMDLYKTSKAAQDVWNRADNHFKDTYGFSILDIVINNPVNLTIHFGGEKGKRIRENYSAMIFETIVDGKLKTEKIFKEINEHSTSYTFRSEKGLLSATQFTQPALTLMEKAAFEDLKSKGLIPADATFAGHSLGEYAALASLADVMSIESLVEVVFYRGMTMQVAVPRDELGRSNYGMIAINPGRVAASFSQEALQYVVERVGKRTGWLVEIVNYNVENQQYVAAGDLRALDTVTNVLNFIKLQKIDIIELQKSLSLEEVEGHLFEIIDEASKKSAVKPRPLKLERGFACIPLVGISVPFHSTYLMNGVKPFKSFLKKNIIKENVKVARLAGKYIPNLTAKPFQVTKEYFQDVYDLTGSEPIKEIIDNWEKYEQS
T1 sequence (P19097 whole entry): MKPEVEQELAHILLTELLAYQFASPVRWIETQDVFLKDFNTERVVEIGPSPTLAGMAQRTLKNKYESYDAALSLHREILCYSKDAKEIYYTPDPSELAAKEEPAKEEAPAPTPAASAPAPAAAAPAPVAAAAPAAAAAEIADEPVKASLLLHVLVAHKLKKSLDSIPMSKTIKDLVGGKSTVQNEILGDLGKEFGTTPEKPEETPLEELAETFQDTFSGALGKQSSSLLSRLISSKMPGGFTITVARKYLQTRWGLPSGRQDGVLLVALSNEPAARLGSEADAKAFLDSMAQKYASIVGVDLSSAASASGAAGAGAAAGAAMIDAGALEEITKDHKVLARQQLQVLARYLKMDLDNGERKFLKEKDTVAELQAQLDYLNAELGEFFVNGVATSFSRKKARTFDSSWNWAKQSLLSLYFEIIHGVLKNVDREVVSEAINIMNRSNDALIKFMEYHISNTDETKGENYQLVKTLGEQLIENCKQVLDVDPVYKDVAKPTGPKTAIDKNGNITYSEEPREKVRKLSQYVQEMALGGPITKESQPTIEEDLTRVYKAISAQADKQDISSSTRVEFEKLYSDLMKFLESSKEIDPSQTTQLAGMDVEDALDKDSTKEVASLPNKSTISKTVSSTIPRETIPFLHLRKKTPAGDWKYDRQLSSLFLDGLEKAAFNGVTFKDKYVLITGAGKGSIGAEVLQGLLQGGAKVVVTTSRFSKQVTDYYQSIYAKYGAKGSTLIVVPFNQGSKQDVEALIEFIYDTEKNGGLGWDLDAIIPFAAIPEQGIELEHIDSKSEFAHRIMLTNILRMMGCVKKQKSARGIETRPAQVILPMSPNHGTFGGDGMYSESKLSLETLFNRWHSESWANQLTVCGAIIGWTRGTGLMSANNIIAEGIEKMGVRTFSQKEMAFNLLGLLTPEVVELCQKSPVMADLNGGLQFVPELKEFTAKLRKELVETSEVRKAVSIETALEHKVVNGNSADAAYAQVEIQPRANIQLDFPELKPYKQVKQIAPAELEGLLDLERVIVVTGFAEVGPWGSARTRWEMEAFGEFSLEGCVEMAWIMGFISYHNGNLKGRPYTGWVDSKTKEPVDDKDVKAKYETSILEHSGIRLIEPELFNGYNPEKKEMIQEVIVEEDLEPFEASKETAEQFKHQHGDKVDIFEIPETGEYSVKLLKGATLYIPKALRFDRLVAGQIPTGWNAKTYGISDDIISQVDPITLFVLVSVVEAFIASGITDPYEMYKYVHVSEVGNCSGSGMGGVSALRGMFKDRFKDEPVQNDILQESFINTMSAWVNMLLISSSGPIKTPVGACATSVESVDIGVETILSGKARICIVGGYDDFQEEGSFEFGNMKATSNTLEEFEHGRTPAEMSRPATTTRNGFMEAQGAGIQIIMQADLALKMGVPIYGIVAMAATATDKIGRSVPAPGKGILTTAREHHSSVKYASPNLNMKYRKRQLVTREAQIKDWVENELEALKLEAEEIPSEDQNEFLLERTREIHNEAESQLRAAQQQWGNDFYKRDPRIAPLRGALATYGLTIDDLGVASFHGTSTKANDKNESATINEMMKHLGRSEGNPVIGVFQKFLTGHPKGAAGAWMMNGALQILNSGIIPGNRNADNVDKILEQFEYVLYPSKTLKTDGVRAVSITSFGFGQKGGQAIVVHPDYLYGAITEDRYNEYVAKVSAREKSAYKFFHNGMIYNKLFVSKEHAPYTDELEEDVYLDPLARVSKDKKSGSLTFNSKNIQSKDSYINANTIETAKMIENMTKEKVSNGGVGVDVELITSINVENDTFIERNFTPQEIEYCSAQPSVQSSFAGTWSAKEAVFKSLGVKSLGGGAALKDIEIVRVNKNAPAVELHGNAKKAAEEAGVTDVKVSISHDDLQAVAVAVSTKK

Take `Clc1ccc(COC(Cn2ccnc2)c2ccc(Cl)cc2Cl)c(Cl)c1` (stereo not drawn) [miconoazole]: the “induction of the OLE1 reporter” value with OLE1 promoter is “induce this reporter”.
Take `CCCCCCC(=O)CCCCCC/C=C/C[C@@H](O)[C@H](O)[C@@](N)(CO)C(=O)O` [myriocin]: in the assay on OLE1 promoter, the “induction of the OLE1 reporter” value is listed as “induce this reporter”.
In the case of `C/C=C/C/C=C/CCC(=O)[C@H]1O[C@H]1C(N)=O` [Cerulenin, 2,3-Epoxy-4-oxo-7,1-dodecadienamide], in the assay on OLE1 promoter, the “lacZ gene expression, OLE1 promoter strain” value is listed as “increase in lacZ gene expression”. Moreover, the “induction of promoter activity” value in the assay on OLE1 promoter (0.2 μg/ml) was “partial induction of promoter activity”; in the assay on OLE1 promoter (0.9 μM) it was 50%; in the assay on OLE1 promoter (2.0 μg/ml), “maximum induction of promoter activity”; with OLE1 promoter (9 μM), “maximum induction of promoter activity”. For the same compound, the “increase in the level of chemiluminescence relative to uninduced control” value with OLE1 promoter (2.0 μg/ml) turned out to be 100 fold. Also, the increase in chemiluminescence in the assay with OLE1 promoter (9 μM, OLE1 promoter strain) is 100-300 fold; with YOL101c promoter (9 μM, YOL101c promoter strain), 100-300 fold. Further, the “OLE1 Fold-induction (100 μM)” value in the assay on OLE1 promoter (100 μM, Pole1-lacZ reporter strain) is reported as 479 Fold. The “lacZ gene expression, YOL101c promoter strain” value in the assay with YOL101c promoter was “increase in lacZ gene expression”. The “lacZ gene expression, YGL039w promoter strain” value with YGL039w promoter is “increase in lacZ gene expression”. Also, the “inhibition of fungal growth” value in the assay with S. cerevisiae mdr mutant (0.2 μg/ml) was “no detectable inhibition of fungal growth”; in the assay with S. cerevisiae mdr mutant (0.9 μM) it was “no detectable inhibition of fungal growth”; in the assay on S. cerevisiae mdr mutant (2.0 μg/ml) it was “maximum inhibition of fungal growth”; in the assay on S. cerevisiae mdr mutant (9 μM) it was “maximum inhibition of fungal growth”. Further, the MIC (usually the least concentration at which growth counts as inhibited) in the assay on S. cerevisiae mdr mutant is 0.2 to 0.9 µM (≈ 0.0447 to 0.201 µg/mL); with S. cerevisiae mdr mutant (read-out: MIC value), 0.2 µM (≈ 0.0447 µg/mL). Besides, the inhibition (in general, the relative decrease from the control value, in per cent) at 100 µM in assay [1] (100 μM, within the first 30 minutes, read-out: inhibition of fatty acid synthesis (NADPH oxidation)) is 80 to 90%; in assay [1] (read-out: FAS-NADPH ox % Inhibition @ 100 μM), 81%; in assay [2], 80 to 90%. For the same compound, the pIC50 (commonly the negative decadic logarithm of the IC50, by convention in mol/L) in assay [1] (read-out: FAS-NADPH ox IC50) was 5.89 to 6.15. Also, the “gene induction of OLE1, YOL101c and YGL039w (mRNA)” value in assay [3] is given as “most highly induced genes”.

The values are drawn from patent US20020037495A1, “High throughput screening for inhibitors of fatty acid, ergosterol, sphingolipid, or phospholipid synthesis in fungi” (priority 2000, published 2002).
